Experimental findings from patent US11178871B2, “Herbicidal pyrimidine compounds” (BASF SE, priority 2016, dated 2021) are described below.

Common to all, as to type: in vivo
Assay [1] deals with Apera spica-venti. Briefly: greenhouse test, pre-emergence treatment, APESV. An excerpt:
(§1) The culture containers used were plastic flowerpots containing loamy sand with approximately 3.0% of humus as the substrate. The seeds of the test plants were sown separately for each species.
(§2) For the pre-emergence treatment, the active ingredients, which had been suspended or emulsified in water, were applied directly after sowing by means of finely distributing nozzles. The containers were irrigated gently to promote germination and growth and subsequently covered with transparent plastic hoods until the plants had rooted. This cover caused uniform germination of the test plants, unless this had been impaired by the active ingredients.
(§3) Depending on the species, the plants were kept at 10-25° C. or 20-35° C., respectively.
(§4) The test period extended over 2 to 4 weeks. During this time, the plants were tended, and their response to the individual treatments was evaluated.
(§5) Evaluation was carried out using a scale from 0 to 100. 100 means no emergence of the plants, or complete destruction of at least the aerial moieties, and 0 means no damage, or normal course of growth. A good herbicidal activity is given at values of at least 70 and a very good herbicidal activity is given at values of at least 85.
(§6) The plants used in the greenhouse experiments were of the following species: […]

The test system of assay [2] is Echinocloa crus-galli. Briefly: greenhouse test, post-emergence treatment, ECHCG. The conditions noted are these: post-emergence.
Source text: as §1
(§7) For the post-emergence treatment, the test plants were first grown to a height of 3 to 15 cm, depending on the plant habit, and only then treated with the active ingredients which had been suspended or emulsified in water. For this purpose, the test plants were either sown directly and grown in the same containers, or they were first grown separately as seedlings and transplanted into the test containers a few days prior to treatment.
as §3, §4, §5, §6

Assay [3] concerns Avena fatua. The assay can be described thus: greenhouse test, post-emergence treatment, AVEFA.
Source text: as §1, §7, §3, §4, §5, §6

Assay [4] concerns Echinocloa crus-galli. Briefly: greenhouse test, pre-emergence treatment, ECHCG.
Source text: as §1, §2, §3, §4, §5, §6

For assay [5], the system named is Alopecurus myosuroides. The assay can be described thus: greenhouse test, post-emergence treatment, ALOMY. The following applies: post-emergence.
Source text: as §1, §7, §3, §4, §5, §6

As to `OC(c1ccccc1)C(O)c1nc(C2CC2)ncc1-c1ccccc1Cl` (stereo not drawn) [Ex. 153], the herbicidal activity entry in assay [1] (2000 g/ha), in assay [2] (2000 g/ha), in assay [3] (2000 g/ha), in assay [4] (2000 g/ha) and in assay [5] (2000 g/ha) was “very good (a very good herbicidal activity is given at values of at least 85)” throughout.

`C/C=C/c1nc(C2CC2)ncc1-c1ccccc1Cl` [Ex. 93]: the herbicidal activity entry in assay [1] (2000 g/ha), in assay [2] (2000 g/ha), in assay [3] (2000 g/ha), in assay [4] (2000 g/ha) and in assay [5] (2000 g/ha) was “very good (a very good herbicidal activity is given at values of at least 85)” each time.

Consider `Brc1ccccc1-c1cnc(C2CC2)nc1C=C1CCC1` [Ex. 157], for which the herbicidal activity result in assay [1] (2000 g/ha), in assay [2] (2000 g/ha), in assay [3] (2000 g/ha), in assay [4] (2000 g/ha) and in assay [5] (2000 g/ha) was “very good (a very good herbicidal activity is given at values of at least 85)” in each case.

On to `CC(O)C(O)c1nc(C2CC2)ncc1-c1ccccc1Cl` (stereo not drawn) [Ex. 147], for which the herbicidal activity result in assay [1] (2000 g/ha), in assay [2] (2000 g/ha), in assay [3] (2000 g/ha), in assay [4] (2000 g/ha) and in assay [5] (2000 g/ha) was “very good (a very good herbicidal activity is given at values of at least 85)” each time.

On to `Cc1cc(-c2nc(C3CC3)ncc2-c2ccccc2Br)c(C)o1` [Ex. 237], for which the herbicidal activity entry in assay [1] (2000 g/ha), in assay [2] (2000 g/ha), in assay [3] (2000 g/ha), in assay [4] (2000 g/ha) and in assay [5] (2000 g/ha) was “very good (a very good herbicidal activity is given at values of at least 85)” each time.

Regarding `Brc1ccccc1-c1cnc(C2CC2)nc1-c1cocn1` [Ex. 287], the herbicidal activity entry in assay [1] (1000 g/ha), in assay [2] (1000 g/ha), in assay [3] (1000 g/ha), in assay [4] (1000 g/ha) and in assay [5] (1000 g/ha) was “very good (a very good herbicidal activity is given at values of at least 85)” each time.
